Each compound was assayed on AMPK (assay: AMPK activity assay at cell level (western blot of p-AMPKα and p-ACC in MEFs)). Conditions: MEF cells, compound 10 nM, 2 h; multiple of the ratio relative to positive control AICAR (3 mM); band brightness by Image J.
Format: cell-based, mouse
Protocol: The ability of compounds to activate AMPK in mouse embryonic fibroblasts (MEFs) was determined, which could be specifically carried out by detecting the phosphorylation level (p-AMPKα) of threonine at the 172nd position of AMPK and the phosphorylation level (p-ACC) of serine at the 79th position of the susbtrate ACC1/ACC2 of AMPK (FIG. 1 and Table I) by western blot.
The specific method was as follows: • (1) MEFs with loxP insertion sequences or of wild-type were plated in a 6-well plate and cultured in DMEM containing 10% serum. If a gene needed to be knocked out at this time, when the density of the corresponding MEFs with loxP insertion sequences reached about 30%, an adenovirus capable of expressing cre should be added to the culture well followed by further culture for more than 24 h; • (2) When the cell density was close to 90%, the cells were provided with fresh DMEM, at the same time, a compound (final concentration 10 nM) was added to the cells, followed by culture for 2 h, with an equal volume of DMSO as the negative control, and the cells treated with the addition of AICAR (3 mM) as the positive control; • (3) After sucking up the culture solution, the cells were lysed with 200 μL of a cell lysate (its formulation was given below), then the cells were scraped from the culture dish, ultrasonicated, and subjected to low temperature centrifugation at 20000 g for 10 min; • (4) The supernatant and an equal volume of 2*SDS solution (its formulation was given below) were mixed, and subjected to SDS-PAGE in a concentration of 8%, then the protein was transferred to PVDF membrane; each PVDF membrane was blocked with 25 mL of skim milk for 1 h, and then rinsed with TBST buffer (its formulation was given below) 3 times for 10 min each time; • (5) AMPKα subunit primary antibody (Cell Signaling Technology, #2532), primary antibody of phosphothreonine at the 172nd position of AMPK (Cell Signaling Technology, #2535), ACC primary antibody (Cell Signaling Technology, #3662), or primary antibody of phosphoserine at the 79th position of ACC (Cell Signaling Technology, #3661) was diluted in a ratio of 1:1000 with a primary antibody dilution (its formulation was given below), reacted with the PVDF membrane at room temperature for 12 h, and then rinsed 3 times with TBST buffer; • (6) A 1:1000 dilution of HRP-conjugated goat anti-rabbit secondary antibody (Jackson ImmunoResearch, 111-035-003) was added, reacted at room temperature for 1 h, and then rinsed 3 times with TBST buffer; • (7) The PVDF membrane was dried, reacted in an ECL mixture (WesternBright ECL HRP substrate, Advansta) and subjected to exposure with medical X-ray, developed, finally rinsed, dried, and then scanned to obtain data related to AMPK activation.
The formulations of reagents used were: • Cell lysate: 20 mM Tris-base, pH 7.5, 150 mM NaCl, 1 mM EDTA, 1 mM EGTA, 2.5 mM Sodium pyrophosphate, 1 mM β-glycerolphosphate, 1% Triton X-100 (v/v); • 2*SDS solution: 20% Glycerol (v/v), 4% SDS (m/v), 10% β-mecaptoethanol (v/v), 0.01% Bromophenol blue (m/v); • TBST buffer: 4.84% Tris-base (m/v), 8% NaCl (m/v), 0.1% Tween-20 (v/v); • Primary antibody dilution: TBST buffer containing 5% BSA (v/v).

Structure (SMILES)	Degree of AMPK activation, p-ACC/ACC	Degree of AMPK activation, p-AMPKα/AMPK
COc1ccc(F)cc1C[n+]1ccn(CCCCCCCCCCCC(F)(F)C(F)(F)C(F)(F)C(F)(F)C(F)(F)F)c1C1CC1.[Br-] [IB-46]	1.73	0.57
CC(C)c1n(CCCCCCCCCCCC(F)(F)C(F)(F)C(F)(F)C(F)(F)F)cc[n+]1Cc1c(Cl)cccc1Cl.[Cl-] [IB-24]	1.60	0.64
Fc1cccc(Cl)c1C[n+]1ccn(CCCCCCCCCCCC(F)(F)C(F)(F)C(F)(F)F)c1C1CC1.[Cl-] [IB-11]	0.41	1.11
Cc1n(CCCCCCCCCCCC(F)(F)C(F)(F)C(F)(F)C(F)(F)C(F)(F)F)cc[n+]1Cc1c(Cl)cccc1Cl.[Br-] [IB-35]	1.15	1.02
Cc1n(CCCCCCCCCCCC(F)(F)C(F)(F)C(F)(F)C(F)(F)F)cc[n+]1Cc1c(Cl)cccc1Cl.[I-] [IB-21]	1.73	0.35
Fc1cccc(Cl)c1C[n+]1ccn(CCCCCCCCCCCC(F)(F)C(F)(F)C(F)(F)F)c1.[Cl-] [IB-2]	0.82	1.45
Cc1n(CCCCCCCCCCCC(F)(F)C(F)(F)C(F)(F)C(F)(F)F)cc[n+]1Cc1c(F)cccc1Cl.[Cl-] [IB-17]	0.72	1.42
Cl.FC(F)(F)C(F)(F)C(F)(F)C(F)(F)C(F)(F)C(F)(F)CCCCCCCCCCCn1cc[n+](Cc2c(Cl)cccc2Cl)c1C1CC1 [IB-56]	0.99	0.85
Cc1n(CCCCCCCCCCCC(F)(F)C(F)(F)C(F)(F)C(F)(F)F)cc[n+]1Cc1c(Cl)cccc1Cl.[Br-] [IB-18]	0.65	1.45
Cl.Fc1cccc(Cl)c1C[n+]1ccn(CCCCCCCCCCCC(F)(F)C(F)(F)C(F)(F)C(F)(F)F)c1 [IB-14]	0.50	1.57
CC(C)c1n(CCCCCCCCCCCC(F)(F)C(F)(F)C(F)(F)C(F)(F)C(F)(F)F)cc[n+]1Cc1c(F)cccc1Cl.[Cl-] [IB-42]	1.50	1.03
COc1ccc(F)cc1C[n+]1ccn(CCCCCCCCCCCC(F)(F)C(F)(F)C(F)(F)C(F)(F)F)c1C.[I-] [IB-23]	1.50	0.49
COc1ccc(F)cc1C[n+]1ccn(CCCCCCCCCCCC(F)(F)C(F)(F)C(F)(F)C(F)(F)F)c1C1CC1.[Br-] [IB-29]	0.81	0.76
CC(C)c1n(CCCCCCCCCCCC(F)(F)C(F)(F)C(F)(F)C(F)(F)F)cc[n+]1Cc1c(F)cccc1Cl.[Cl-] [IB-25]	1.10	0.58
FC(F)(F)C(F)(F)C(F)(F)C(F)(F)CCCCCCCCCCCn1cc[n+](Cc2c(Cl)cccc2Cl)c1C1CC1.[Cl-] [IB-27]	1.06	0.95
CC(C)c1n(CCCCCCCCCCCC(F)(F)C(F)(F)C(F)(F)F)cc[n+]1Cc1c(F)cccc1Cl.[Cl-] [IB-8]	0.90	1.23
COc1ccc(F)cc1C[n+]1ccn(CCCCCCCCCCCC(F)(F)C(F)(F)C(F)(F)F)c1C(C)C.[Br-] [IB-9]	0.27	1.07
Cc1n(CCCCCCCCCCCC(F)(F)C(F)(F)C(F)(F)F)cc[n+]1Cc1c(F)cccc1Cl.[Cl-] [IB-5]	0.70	1.85
FC(F)(F)C(F)(F)C(F)(F)CCCCCCCCCCCn1cc[n+](Cc2c(Cl)cccc2Cl)c1.[Cl-] [IB-1]	0.71	0.99

Structure (SMILES)	Degree of AMPK activation, p-ACC/ACC	Degree of AMPK activation, p-AMPKα/AMPK
Cl.FC(F)(F)C(F)(F)C(F)(F)C(F)(F)CCCCCCCCCCCn1cc[n+](Cc2c(Cl)cccc2Cl)c1 [IB-13]	0.57	1.31
Br.COc1ccc(F)cc1C[n+]1ccn(CCCCCCCCCCCC(F)(F)C(F)(F)C(F)(F)C(F)(F)C(F)(F)C(F)(F)F)c1C(C)C [IB-55]	1.98	0.87
Cl.FC(F)(F)C(F)(F)C(F)(F)CCCCCCCCCCCn1cc[n+](Cc2c(Cl)cccc2Cl)c1C1CC1 [IB-10]	0.35	1.94
Cc1n(CCCCCCCCCCCC(F)(F)C(F)(F)C(F)(F)C(F)(F)F)cc[n+]1Cc1c(F)cccc1Cl.[I-] [IB-22]	1.08	0.44
Fc1cccc(Cl)c1C[n+]1ccn(CCCCCCCCCCCC(F)(F)C(F)(F)C(F)(F)C(F)(F)C(F)(F)F)c1C1CC1.[Cl-] [IB-45]	2.22	0.54
Br.COc1ccc(F)cc1C[n+]1ccn(CCCCCCCCCCCC(F)(F)C(F)(F)C(F)(F)F)c1C1CC1 [IB-12]	0.50	1.18
Cc1n(CCCCCCCCCCCC(F)(F)C(F)(F)C(F)(F)C(F)(F)C(F)(F)F)cc[n+]1Cc1c(Cl)cccc1Cl [IB-60]	1.01	0.94
CC(C)c1n(CCCCCCCCCCCC(F)(F)C(F)(F)C(F)(F)F)cc[n+]1Cc1c(Cl)cccc1Cl.[Cl-] [IB-7]	0.87	1.93
COc1ccc(F)cc1C[n+]1ccn(CCCCCCCCCCCC(F)(F)C(F)(F)C(F)(F)C(F)(F)F)c1C.[Br-] [IB-20]	0.82	1.22
Cc1n(CCCCCCCCCCCC(F)(F)C(F)(F)C(F)(F)C(F)(F)C(F)(F)F)cc[n+]1Cc1c(F)cccc1Cl.[I-] [IB-39]	1.51	1.50
Br.Cc1n(CCCCCCCCCCCCCCCCF)cc[n+]1Cc1c(Cl)cccc1Cl [IA-2]	0.73	1.00
Cc1n(CCCCCCCCCCCC(F)(F)C(F)(F)C(F)(F)C(F)(F)C(F)(F)F)cc[n+]1Cc1c(Cl)cccc1Cl [IB-59]	1.04	0.98
COc1ccc(F)cc1C[n+]1ccn(CCCCCCCCCCCC(F)(F)C(F)(F)C(F)(F)C(F)(F)F)c1C(C)C.[Br-] [IB-26]	1.04	0.94
Cc1n(CCCCCCCCCCCCCCCCF)cc[n+]1Cc1c(Cl)cccc1Cl.[I-] [IA-3]	0.83	0.69
CC(C)c1n(CCCCCCCCCCCC(F)(F)C(F)(F)C(F)(F)C(F)(F)C(F)(F)C(F)(F)F)cc[n+]1Cc1c(Cl)cccc1Cl.Cl [IB-53]	1.23	0.76
COc1ccc(F)cc1C[n+]1ccn(CCCCCCCCCCCC(F)(F)C(F)(F)C(F)(F)F)c1.[Br-] [IB-3]	0.64	1.70
COc1ccc(F)cc1C[n+]1ccn(CCCCCCCCCCCC(F)(F)C(F)(F)C(F)(F)C(F)(F)C(F)(F)F)c1C.[I-] [IB-40]	1.65	1.06
COc1ccc(F)cc1C[n+]1ccn(CCCCCCCCCCCC(F)(F)C(F)(F)C(F)(F)C(F)(F)C(F)(F)C(F)(F)F)c1C.[Br-] [IB-52]	0.98	0.83
